Experimental data taken from patent US20080093247A1, “PACKAGING MATERIALS FOR FORMULATIONS CONTAINING 2-PYRROLIDONE DERIVATIVES” (Alcon Manufacturing Ltd., priority 2006, published 2008).
“And” between values parts separate entries of the source, which are not always exact repeats. Identical values can stand only once.

How the values were obtained:
[1] = cited from earlier work
[2] = Retention of N-dodecyl-2-pyrrolidone (DDP) in formulations stored in various packaging materials, HPLC; assay type: physicochemical
Description: A material substantially lacking absorptive and adsorptive properties for a 5-(R1)-N-(R2)-2-pyrrolidone. A material substantially lacking absorptive and adsorptive properties for a 5-(R1)-N-(R2)-2-pyrrolidone is determined by packaging a 5-(R1)-N-(R2)-2-pyrrolidone-containing formulation in a bottle made from a test material, removing samples from the formulation at different storage times, and testing for the presence of the 2-pyrrolidone derivative. For example, presence of N-dodecyl-2-pyrrolidone (DDP) within a test sample is determined quantitatively using HPLC analysis as described in the examples provided infra.
The serotonergic formulation set forth in Table 1 was compounded in a glass bottle using techniques known to those skilled in the art. The formulation was tested for starting DDP concentration and then a volume was filled into different types of packaging materials as set forth in Table 2. The filled packages were then stored at the conditions indicated in Table 2, either room temperature or constant temperature ovens at 40° C. and 60° C. The thermal exposure testing was used to simulate the ability of container material to retain and deliver DDP in solution over a period of time or after prolonged increased thermal exposure. The tests were performed on duplicate containers to verify DDP concentration remaining in solution.
Concentration of DDP in each formulation was determined by chromatographic separation. The tests were performed on a WATERS ALLIANCE HPLC system with a CADENZA C18 column using a mobile phase consisting of 85% acetonitrile and 15% 1-octanesulfonic acid/water at room temperature. Absorbance was monitored at 220 nm, the known absorption wavelength of DDP. Linear range of detection for DDP was from 1.0 to 100.0 ppm. Retention time of DDP using this system is 8.3 minutes.
In further reference to Table 2, “Glass Vial” is a 1.5 mL clear borosilicate glass vial sealed with a TEFLON® lined septa and aluminum crimp seal (AGILENT HPLC vials part number 5182-0543). “White PETE” is a 60 mL cylindrical bottle made from polyethylene terephthalate (PETE) resin containing a white colorant, titanium dioxide (ALCON part number X04715). “Natural sPP” is a 4 mL oval bottle made from syndiotactic polypropylene (sPP) resin without colorant, i.e., natural (ALCON part number 281277). “Natural TEFLON®” is a 30 mL cylindrical bottle made from fluorinated ethylene propylene (TEFLON® FEP) polymer without colorant by NALGENE® (VWR part number 16071-008).
The serotonergic formulation set forth in Table 3 was compounded in the same manner as the Table 1 formulation. The test, the method of testing, and the packaging were as for the Table 1 formulation.
The formulation set forth in Table 5 was compounded in the same manner as the Table 1 formulation. The test, the method of testing, and the packaging were as for the Table 1 formulation.
The formulation set forth in Table 7 was compounded in the same manner as the Table 1 formulation. The test, the method of testing, and the packaging were as for the Table 1 formulation, except as indicated. “White LDPE” is an 8 mL cylindrical bottle made from low-density polyethylene (LDPE) with white colorant and is ALCON part number 277027. “Natural Polystyrene” is a 150 mL cylindrical bottle made of polystyrene polymer without colorant and is CORNING filter flask product 431153.

SMILES: CCCCCCCCN1CCCC1=O [N-octyl-2-pyrrolidone]
- solubility in water [1]: up to 0.124%

SMILES: CCCCCCCCCCCCN1CCCC1=O [DDP, N-dodecyl-2-pyrrolidone]
- DDP concentration in formulation ([2]; Table 1 formulation, Glass Vial 1.5 mL Fill, 1 day @ 40° C.): 9.5 ppm and 9.6 ppm
- DDP concentration in formulation ([2]; Table 1 formulation, Glass Vial 1.5 mL Fill, 1 day @ 60° C.): 10 ppm and 9.6 ppm
- DDP concentration in formulation ([2]; Table 1 formulation, Glass Vial 1.5 mL Fill, 1 day @ RT): 9.2 ppm and 9.3 ppm
- DDP concentration in formulation ([2]; Table 1 formulation, Glass Vial 1.5 mL Fill, 2 days @ 40° C.): 9.3, 9.3 ppm
- DDP concentration in formulation ([2]; Table 1 formulation, Glass Vial 1.5 mL Fill, 2 days @ 60° C.): 9.4 ppm and 9.1 ppm
- DDP concentration in formulation ([2]; Table 1 formulation, Glass Vial 1.5 mL Fill, 5 days @ 40° C.): 8.8 ppm and 9.1 ppm
- DDP concentration in formulation ([2]; Table 1 formulation, Glass Vial 1.5 mL Fill, 5 days @ 60° C.): 8.9 ppm and 8.6 ppm
- DDP concentration in formulation ([2]; Table 1 formulation, Glass Vial 1.5 mL Fill, 6 days @ RT): 9.0, 9.0 ppm
- DDP concentration in formulation ([2]; Table 1 formulation, Natural TEFLON 10 mL Fill, 2 days @ 60° C.): 8.4 ppm
- DDP concentration in formulation ([2]; Table 1 formulation, Natural TEFLON 10 mL Fill, 5 days @ 60° C.): 7.8 ppm
- DDP concentration in formulation ([2]; Table 1 formulation, Natural sPP 4 mL Fill, 1 day @ 40° C.): 3.3 ppm and 3.4 ppm
- DDP concentration in formulation ([2]; Table 1 formulation, Natural sPP 4 mL Fill, 1 day @ 60° C.): 1.3, 1.3 ppm
- DDP concentration in formulation ([2]; Table 1 formulation, Natural sPP 4 mL Fill, 1 day @ RT): 6.1 ppm and 6.6 ppm
- DDP concentration in formulation ([2]; Table 1 formulation, Natural sPP 4 mL Fill, 2 days @ 40° C.): 1.6 ppm and 1.7 ppm
- DDP concentration in formulation ([2]; Table 1 formulation, Natural sPP 4 mL Fill, 2 days @ 60° C.): 1.2 ppm and 1.3 ppm
- DDP concentration in formulation ([2]; Table 1 formulation, Natural sPP 4 mL Fill, 6 days @ RT): 4.0 ppm and 3.9 ppm
- DDP concentration in formulation ([2]; Table 1 formulation, Start, before filling into packaging): 11,11 ppm and 11, 11 ppm
- DDP concentration in formulation ([2]; Table 1 formulation, White PETE 10 mL Fill, 1 day @ 40° C.): 9.6 ppm and 9.3 ppm
- DDP concentration in formulation ([2]; Table 1 formulation, White PETE 10 mL Fill, 1 day @ 60° C.): 8.1 ppm and 8.3 ppm
- DDP concentration in formulation ([2]; Table 1 formulation, White PETE 10 mL Fill, 1 day @ RT): 9.8 ppm and 10 ppm
- DDP concentration in formulation ([2]; Table 1 formulation, White PETE 10 mL Fill, 2 days @ 40° C.): 8.9 ppm and 9.4 ppm
- DDP concentration in formulation ([2]; Table 1 formulation, White PETE 10 mL Fill, 2 days @ 60° C.): 7.4 ppm and 7.5 ppm
- DDP concentration in formulation ([2]; Table 1 formulation, White PETE 10 mL Fill, 5 days @ 40° C.): 8.8 ppm and 9.3 ppm
- DDP concentration in formulation ([2]; Table 1 formulation, White PETE 10 mL Fill, 5 days @ 60° C.): 6.1 ppm and 6.4 ppm
- DDP concentration in formulation ([2]; Table 1 formulation, White PETE 10 mL Fill, 6 days @ RT): 9.1 ppm and 9.0 ppm
- DDP concentration after thermal exposure (in words) ([2]; Table 1 formulation, sPP container, Tests 1, 2, and 3): drops significantly
- DDP concentration in formulation ([2]; Table 3 formulation, Glass Vial 1.5 mL Fill, 1 day @ 40° C.): 20, 20 ppm
- DDP concentration in formulation ([2]; Table 3 formulation, Glass Vial 1.5 mL Fill, 1 day @ 60° C.): 20, 20 ppm
- DDP concentration in formulation ([2]; Table 3 formulation, Glass Vial 1.5 mL Fill, 1 day @ RT): 20, 20 ppm
- DDP concentration in formulation ([2]; Table 3 formulation, Glass Vial 1.5 mL Fill, 2 days @ 40° C.): 19 ppm and 21 ppm
- DDP concentration in formulation ([2]; Table 3 formulation, Glass Vial 1.5 mL Fill, 2 days @ 60° C.): 20 ppm and 19 ppm
- DDP concentration in formulation ([2]; Table 3 formulation, Glass Vial 1.5 mL Fill, 5 days @ 40° C.): 20, 20 ppm
- DDP concentration in formulation ([2]; Table 3 formulation, Glass Vial 1.5 mL Fill, 5 days @ 60° C.): 19, 19 ppm
- DDP concentration in formulation ([2]; Table 3 formulation, Glass Vial 1.5 mL Fill, 6 days @ RT): 20, 20 ppm
- DDP concentration in formulation ([2]; Table 3 formulation, Natural TEFLON 10 mL Fill, 2 days @ 60° C.): 19 ppm
- DDP concentration in formulation ([2]; Table 3 formulation, Natural TEFLON 10 mL Fill, 5 days @ 60° C.): 19 ppm
- DDP concentration in formulation ([2]; Table 3 formulation, Natural sPP 4 mL Fill, 1 day @ 40° C.): 13, 13 ppm
- DDP concentration in formulation ([2]; Table 3 formulation, Natural sPP 4 mL Fill, 1 day @ 60° C.): 7.0, 7.0 ppm
- DDP concentration in formulation ([2]; Table 3 formulation, Natural sPP 4 mL Fill, 1 day @ RT): 18, 18 ppm
- DDP concentration in formulation ([2]; Table 3 formulation, Natural sPP 4 mL Fill, 2 days @ 40° C.): 10, 10 ppm
- DDP concentration in formulation ([2]; Table 3 formulation, Natural sPP 4 mL Fill, 2 days @ 60° C.): 3.4 ppm and 3.2 ppm
- DDP concentration in formulation ([2]; Table 3 formulation, Natural sPP 4 mL Fill, 5 days @ 40° C.): 6.1 ppm and 6.2 ppm
- DDP concentration in formulation ([2]; Table 3 formulation, Natural sPP 4 mL Fill, 6 days @ RT): 15, 15 ppm
- DDP concentration in formulation ([2]; Table 3 formulation, Start, before filling into packaging): 20, 20 ppm
- DDP concentration in formulation ([2]; Table 3 formulation, White PETE 10 mL Fill, 1 day @ 40° C.): 20, 20 ppm
- DDP concentration in formulation ([2]; Table 3 formulation, White PETE 10 mL Fill, 1 day @ 60° C.): 19 ppm and 20 ppm
- DDP concentration in formulation ([2]; Table 3 formulation, White PETE 10 mL Fill, 1 day @ RT): 21 ppm and 20 ppm
- DDP concentration in formulation ([2]; Table 3 formulation, White PETE 10 mL Fill, 2 days @ 40° C.): 20 ppm and 19 ppm
- DDP concentration in formulation ([2]; Table 3 formulation, White PETE 10 mL Fill, 2 days @ 60° C.): 18 ppm and 19 ppm
- DDP concentration in formulation ([2]; Table 3 formulation, White PETE 10 mL Fill, 5 days @ 40° C.): 20, 20 ppm
- DDP concentration in formulation ([2]; Table 3 formulation, White PETE 10 mL Fill, 5 days @ 60° C.): 17 ppm and 18 ppm
- DDP concentration in formulation ([2]; Table 3 formulation, White PETE 10 mL Fill, 6 days @ RT): 19 ppm and 20 ppm
- available DDP in the contained solution (in words) ([2]; Table 3 formulation, sPP packaging relative to Glass Vial, PETE, and TEFLON, Tests 4, 5, and 6): significant reduction
- DDP concentration in formulation ([2]; Table 5 formulation, Glass Vial 1.5 mL Fill, 1 day @ 40° C.): 9.0 ppm and 8.9 ppm
- DDP concentration in formulation ([2]; Table 5 formulation, Glass Vial 1.5 mL Fill, 1 day @ RT): 8.7 ppm and 8.6 ppm
- DDP concentration in formulation ([2]; Table 5 formulation, Glass Vial 1.5 mL Fill, 2 days @ 40° C.): 8.6 ppm and 8.2 ppm
- DDP concentration in formulation ([2]; Table 5 formulation, Glass Vial 1.5 mL Fill, 6 days @ RT): 8.4 ppm and 8.2 ppm
- DDP concentration in formulation ([2]; Table 5 formulation, Natural sPP 4 mL Fill, 1 day @ 40° C.): 0.3, 0.3 ppm
- DDP concentration in formulation ([2]; Table 5 formulation, Natural sPP 4 mL Fill, 1 day @ RT): 1.1, 1.1 ppm
- DDP concentration in formulation ([2]; Table 5 formulation, Start, before filling into packaging): 8.0, 8.0 ppm
- DDP concentration in formulation ([2]; Table 5 formulation, White PETE 10 mL Fill, 1 day @ 40° C.): 5.5 ppm and 5.0 ppm
- DDP concentration in formulation ([2]; Table 5 formulation, White PETE 10 mL Fill, 1 day @ RT): 6.3 ppm and 6.4 ppm
- DDP concentration in formulation ([2]; Table 5 formulation, White PETE 10 mL Fill, 2 days @ 40° C.): 4.6 ppm and 4.5 ppm
- DDP concentration in formulation ([2]; Table 5 formulation, White PETE 10 mL Fill, 6 days @ RT): 6.5 ppm and 6.4 ppm
- available DDP in the contained solution (in words) ([2]; Table 5 formulation, sPP packaging relative to Glass Vial and PETE, Tests 7, 8, and 9): significant reduction
- retaining DDP in the formulation (in words) ([2]; Table 7 formulation, Natural Polystyrene container, Tests 10, 11, and 12): essentially equivalent to the PETE container
- loss of DDP from the formulation (in words) ([2]; Table 7 formulation, White LDPE container, Tests 10, 11, and 12): even more severe than the sPP container
- loss of DDP from the formulation (in words) ([2]; Table 7 formulation, sPP container, Tests 10, 11, and 12): much greater than that of the Glass Vial or PETE containers
- solubility in water [1]: up to 0.002%
